Measurements as given in ChEMBL document CHEMBL3045114, “SAR studies of sesquiterpene lactones as Orobanche cumana seed germination stimulants” (2002).
Active and inactive are the calls of the source. No cut-off for these calls is given here.

What follows are compounds tested on Orobanche crenata (assay: Induction of Orobanche crenata seed germination at 100 uM after 6 days).
Format: functional
`CC1=C[C@H](O/C=C2/C(=O)O[C@@H]3c4ccccc4C[C@H]23)OC1=O` was tested, and the Activity was 80%.

Each compound was assayed on Orobanche cernua var. cumana (assay: Induction of Orobanche cernua var. cumana seed germination at 10 uM after 6 days).
Format: functional
With `CC1=C[C@@H](O/C=C2/C(=O)O[C@H]3C=CC[C@@H]23)OC1=O` the Activity was 0%.
Work on `C=C1C(=O)O[C@H]2[C@H]1CCC(=C)[C@]1(O)C[C@@H](O)C(=C)[C@]21O` yielded an Activity of 0%.
In the case of `C=C1[C@@H]2[C@H]3OC(=O)C(=C)[C@@H]3CCC(=C)[C@@H]2C[C@H]1O` [ISOZALUZANIN C], the Activity is reported as greater than 40%.
`C=C1C(=O)O[C@@H]2/C=C(\C)CC/C=C(/CO)CC[C@@H]12` gave an Activity of 0%.
Compound `C=C1C(=O)O[C@@H]2C3O[C@]3(C)CC/C=C(\C)CC[C@@H]12` (stereo partly specified) has an Activity greater than 40%.
In the case of `C=C1CC[C@H]2[C@H](CO)C(=O)O[C@@H]2C2C(=C)CCC12` (stereo partly specified), the Activity is reported as greater than 40%.
For `C=C1C(=O)O[C@H]2[C@H]1CC[C@@]1(C)[C@H](O)CC=C(C)[C@]21O`, the Activity was “inactive”.
In the case of `C/C1=C\CC[C@@]2(C)O[C@@H]2[C@H]2OC(=O)[C@](C)(O)[C@@H]2CC1`, the Activity is reported as 0%.
For `C=C1C(=O)O[C@@H]2/C=C(\C)CC[C@H]3O[C@]3(C)CC[C@@H]12` [1,10-EPOXYCOSTUNOLIDE], the Activity was greater than 40%.
In the case of `CC1=C[C@H](O/C=C2/C(=O)O[C@@H]3c4ccccc4C[C@H]23)OC1=O`, the Activity is reported as 65%.
For `C=C1CC[C@H]2[C@H](CO)C(=O)O[C@@H]2C2C(=C)[C@H](O)CC12` (stereo partly specified), the Activity was greater than 40%.
`C=C1C2[C@H]3OC(=O)C(=C)[C@@H]3CC[C@@]2(C)[C@H](O)C[C@H]1O` (stereo partly specified) was tested, and the Activity was “inactive”.
In the case of `C=C1CC[C@@H](O)[C@]2(C)CC[C@H]3C(=C)C(=O)O[C@@H]3[C@@H]12` [REYNOSIN], the Activity is reported as 0%.

The compounds below were run on Orobanche minor (assay: Induction of Orobanche minor seed germination at 0.001 uM after 6 days).
Format: functional
For `CC1=C[C@H](O/C=C2/C(=O)O[C@@H]3C4=C(C[C@H]23)[C@@H](O)CCC4(C)C)OC1=O` [STRIGOL], the Activity was greater than 40%.
For `CC1=CC(O/C=C2/C(=O)OC3C2C=C2CCCC(C)(C)C23O)OC1=O` (stereo unspecified) [ALECTROL], the Activity was greater than 40%.
`COC(=O)/C(=C/O[C@H]1C=C(C)C(=O)O1)N1C(=O)c2ccccc2C1=O` [NIJMEGEN-1] gave an Activity of 0%.
Work on `CC1=C[C@H](O/C=C2/C(=O)O[C@@H]3C4=C(CCCC4(C)C)[C@@H](O)[C@H]23)OC1=O` [OROBANCHOL] yielded an Activity greater than 40%.

These compounds were tested on Orobanche cernua var. cumana (assay: Induction of Orobanche cernua var. cumana seed germination at 100 uM after 6 days).
Format: functional
In the case of `CC1=C[C@H](O/C=C2/C(=O)O[C@@H]3c4ccccc4C[C@H]23)OC1=O`, the Activity is reported as 50%.

What follows are compounds tested on Orobanche crenata (assay: Induction of Orobanche crenata seed germination after 6 days).
Format: functional
With `CC1=C[C@H](O/C=C2/C(=O)O[C@@H]3C4=C(CCC[C@@H]4C)C[C@H]23)OC1=O` [SORGOLACTONE] the Activity was greater than 40%.

These compounds were tested on Phelipanche ramosa (assay: Induction of Orobanche ramosa seed germination at 100 uM after 6 days).
Format: functional
With `CC1=C[C@H](O/C=C2/C(=O)O[C@@H]3c4ccccc4C[C@H]23)OC1=O` the Activity was 65%.
